# Source: PMC4742234, “Screening of Drug Metabolizing Enzymes for the Ginsenoside Compound K In Vitro: An Efficient Anti-Cancer Substance Originating from Panax Ginseng” (PLoS ONE, 2016)
# “And” between values parts separate entries of the source, which are not always exact repeats. Identical values can stand only once.
# Target: CYP3A4 (Homo sapiens, UniProt P08684)
# Assay: Kinetic analysis of CK metabolism by recombinant CYP3A4
# Assay type: in vitro ADME
# Parameters: purchased Cypex Ltd. (U.K.)
# Conditions: recombinant CYP3A4 10 pmol, CK 10–100 μM
# Description: The method was conducted according to our previous study with some modifications. The CYP isoform-specific probe reactions used were phenacetin O-deethylation (for CYP1A2), coumarin 7-hydroxylation (for CYP2A6), tolbutamide 4-hydroxylation (for CYP2C9), metoprolol α-hydroxylation (for CYP2D6), chlorzoxazone 6-hydroxylation (for CYP2E1),S-Mephenytoin 4-hydroxylation (for CYP2C19), and midazolam 1-hydroxylation (for CYP3A4). The kinetic study of CK was conducted with HLMs. A 0.2 mL incubation mixture that consisted of CK (as a substrate), the HLMs (0.5 mg/mL) or CYP isoforms (10 pmol), and 0.1 M sodium phosphate buffer (pH 7.4) was pre-warmed for 5 min at 37°C. The reaction was initiated by the addition of 1 mg/mL triphosphopyridine nucleotide (NADPH). […]
# The kinetic parameters for the metabolism of CK were determined by incubating increasing concentrations of CK (10–100 μM) at 37°C with the HLMs and NADPH under the incubation conditions as described in detail previously. The equation of CK reaction velocity (V) in the HLMs or CYP isoforms is expressed as V = (C0–Ct)/T/Cp, where C0and Ct are the initial and final concentrations of CK in the incubation solution, respectively, T is the incubation time (min), and Cp is the protein concentration (mg/mL or nmol). All values were expressed as the mean±standard deviation (SD). […]
# Sequence of CYP3A4 (P08684 whole entry): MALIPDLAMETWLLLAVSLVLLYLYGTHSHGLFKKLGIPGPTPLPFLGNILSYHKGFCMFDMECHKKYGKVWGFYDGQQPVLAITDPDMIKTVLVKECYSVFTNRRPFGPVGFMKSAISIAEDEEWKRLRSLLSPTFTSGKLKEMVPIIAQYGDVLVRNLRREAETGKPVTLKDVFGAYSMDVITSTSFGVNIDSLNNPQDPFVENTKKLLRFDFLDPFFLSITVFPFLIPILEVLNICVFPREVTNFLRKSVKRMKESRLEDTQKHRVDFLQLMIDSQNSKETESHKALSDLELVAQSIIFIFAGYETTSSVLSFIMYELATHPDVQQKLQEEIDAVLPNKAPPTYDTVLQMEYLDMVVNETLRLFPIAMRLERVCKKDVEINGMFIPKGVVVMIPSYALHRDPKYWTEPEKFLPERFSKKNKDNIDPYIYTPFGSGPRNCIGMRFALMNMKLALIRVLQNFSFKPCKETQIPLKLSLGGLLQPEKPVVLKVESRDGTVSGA
smiles,measurement,value
"CC(C)=CCC[C@](C)(OC1O[C@H](CO)[C@@H](O)[C@H](O)[C@H]1O)[C@H]1CC[C@]2(C)[C@@H]1[C@H](O)C[C@@H]1[C@@]3(C)CC[C@H](O)C(C)(C)[C@@H]3CC[C@]12C (stereo partly drawn) [CK, 20-O-β-(D-glucopyranosyl)-20(S)-protopanaxadiol]",Vmax of CK metabolism,0.68±0.04 nmol/nmol P450/min and 0.6756 nmol/nmol P450/min
